According to PubChem BioAssay (NCI):
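Cells were grown in 96-well plates and exposed to each compound for 48 hours at five concentrations; endpoints were interpolated linearly between bracketing concentrations, or set to the highest concentration if not reached. GI50 = concentration required for 50% inhibition of growth. TGI: total growth inhibition.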

What was measured:
Test in all cases: NCI-60 cell line screen, 48 h; in the data active = GI50 below about 0.43 µM; inactive = the rest
786-0 renal = test system: 786-0 renal
A498 renal = test system: A498 renal
A549 NSCLC = test system: A549 NSCLC
ACHN renal = test system: ACHN renal
BT-549 breast = test system: BT-549 breast
CAKI-1 renal = test system: CAKI-1 renal
CCRF-CEM leukemia = test system: CCRF-CEM leukemia
COLO 205 colon = test system: COLO 205 colon
DU-145 prostate = test system: DU-145 prostate
EKVX NSCLC = test system: EKVX NSCLC
HCC-2998 colon = test system: HCC-2998 colon
HCT-116 colon = test system: HCT-116 colon
HCT-15 colon = test system: HCT-15 colon
HL-60(TB) leukemia = test system: HL-60(TB) leukemia
HOP-62 NSCLC = test system: HOP-62 NSCLC
HOP-92 NSCLC = test system: HOP-92 NSCLC
HS 578T breast = test system: HS 578T breast
HT29 colon = test system: HT29 colon
IGROV1 ovarian = test system: IGROV1 ovarian
K-562 leukemia = test system: K-562 leukemia
KM12 colon = test system: KM12 colon
LOX IMVI melanoma = test system: LOX IMVI melanoma
M14 melanoma = test system: M14 melanoma
MALME-3M melanoma = test system: MALME-3M melanoma
MCF7 breast = test system: MCF7 breast
MDA-MB-231 breast = test system: MDA-MB-231 breast
MDA-MB-435 = test system: MDA-MB-435
MDA-MB-468 breast = test system: MDA-MB-468 breast
MOLT-4 leukemia = test system: MOLT-4 leukemia
NCI-H226 lung = test system: NCI-H226 lung
NCI-H23 lung = test system: NCI-H23 lung
NCI-H460 lung = test system: NCI-H460 lung
NCI-H522 lung = test system: NCI-H522 lung
OVCAR-3 ovarian = test system: OVCAR-3 ovarian
OVCAR-4 ovarian = test system: OVCAR-4 ovarian
OVCAR-5 ovarian = test system: OVCAR-5 ovarian
PC-3 prostate = test system: PC-3 prostate
RPMI-8226 leukemia = test system: RPMI-8226 leukemia
RXF 393 renal = test system: RXF 393 renal
SF-268 CNS = test system: SF-268 CNS
SF-295 CNS = test system: SF-295 CNS
SF-539 CNS = test system: SF-539 CNS
SK-MEL-2 melanoma = test system: SK-MEL-2 melanoma
SK-MEL-28 melanoma = test system: SK-MEL-28 melanoma
SK-MEL-5 melanoma = test system: SK-MEL-5 melanoma
SK-OV-3 ovarian = test system: SK-OV-3 ovarian
SN12C renal = test system: SN12C renal
SNB-19 CNS = test system: SNB-19 CNS
SNB-75 CNS = test system: SNB-75 CNS
SR leukemia = test system: SR leukemia
SW-620 colon = test system: SW-620 colon
T-47D breast = test system: T-47D breast
TK-10 renal = test system: TK-10 renal
U251 CNS = test system: U251 CNS
UACC-257 melanoma = test system: UACC-257 melanoma
UACC-62 melanoma = test system: UACC-62 melanoma
UO-31 renal = test system: UO-31 renal

CNC(=O)c1cc(Oc2ccc3nc(NC(=O)Nc4cccc(OC(F)(F)F)c4)sc3c2)ccn1
7.09 µM: TGI (HS 578T breast)
23.6 µM: TGI (LOX IMVI melanoma)
7.41 µM: TGI (786-0 renal)
4.82 µM: TGI (RXF 393 renal)
5.52 µM: TGI (SNB-75 CNS)
> 100 µM: TGI (A549 NSCLC) | TGI (CCRF-CEM leukemia) | TGI (COLO 205 colon) | TGI (DU-145 prostate) | TGI (EKVX NSCLC) | TGI (HCC-2998 colon) | TGI (HCT-116 colon) | TGI (HCT-15 colon) | TGI (HL-60(TB) leukemia) | TGI (HT29 colon) | TGI (K-562 leukemia) | TGI (KM12 colon) | TGI (M14 melanoma) | TGI (MCF7 breast) | TGI (MDA-MB-435) | TGI (MOLT-4 leukemia) | TGI (NCI-H460 lung) | TGI (NCI-H522 lung) | TGI (OVCAR-3 ovarian) | TGI (OVCAR-5 ovarian) | TGI (PC-3 prostate) | TGI (RPMI-8226 leukemia) | TGI (SK-MEL-28 melanoma) | TGI (SK-MEL-5 melanoma) | TGI (SN12C renal) | TGI (SR leukemia) | TGI (SW-620 colon) | TGI (T-47D breast) | TGI (UACC-257 melanoma) | TGI (UO-31 renal)
5.3 µM: TGI (MALME-3M melanoma)
6.14 µM: TGI (NCI-H226 lung)
10.9 µM: TGI (MDA-MB-231 breast)
4.46 µM: TGI (HOP-92 NSCLC)
13.2 µM: TGI (TK-10 renal)
21.6 µM: TGI (IGROV1 ovarian)
10.2 µM: TGI (SF-539 CNS)
89 µM: TGI (SF-268 CNS)
9.77 µM: TGI (A498 renal)
7.26 µM: TGI (ACHN renal)
3.47 µM: TGI (HOP-62 NSCLC)
6.83 µM: TGI (SK-OV-3 ovarian)
9.02 µM: TGI (BT-549 breast)
4.17 µM: TGI (SF-295 CNS)
4.72 µM: TGI (CAKI-1 renal)
6.27 µM: TGI (U251 CNS)
9.23 µM: TGI (OVCAR-4 ovarian)
8.12 µM: TGI (SK-MEL-2 melanoma)
inactive: GI50 (786-0 renal) 2.71 µM | GI50 (A498 renal) 4.25 µM | GI50 (A549 NSCLC) 2.69 µM | GI50 (ACHN renal) 2.32 µM | GI50 (BT-549 breast) 3.21 µM | GI50 (CAKI-1 renal) 2.01 µM | GI50 (CCRF-CEM leukemia) 9.07 µM | GI50 (COLO 205 colon) 5.43 µM | GI50 (DU-145 prostate) 3.64 µM | GI50 (EKVX NSCLC) 3.56 µM | GI50 (HCC-2998 colon) 8.69 µM | GI50 (HCT-116 colon) 4.67 µM | GI50 (HCT-15 colon) 4.07 µM | GI50 (HL-60(TB) leukemia) > 100 µM | GI50 (HOP-62 NSCLC) 1.72 µM | GI50 (HOP-92 NSCLC) 1.66 µM | GI50 (HS 578T breast) 2.29 µM | GI50 (HT29 colon) 7.9 µM | GI50 (IGROV1 ovarian) 4.65 µM | GI50 (K-562 leukemia) 5.51 µM | GI50 (KM12 colon) 0.809 µM | GI50 (LOX IMVI melanoma) 4.15 µM | GI50 (M14 melanoma) 5.76 µM | GI50 (MALME-3M melanoma) 1.82 µM | GI50 (MCF7 breast) 8.31 µM | GI50 (MDA-MB-231 breast) 2.37 µM | GI50 (MDA-MB-435) 4.27 µM | GI50 (MDA-MB-468 breast) 2.16 µM | GI50 (MOLT-4 leukemia) > 100 µM | GI50 (NCI-H226 lung) 2.56 µM | GI50 (NCI-H23 lung) 2.91 µM | GI50 (NCI-H460 lung) 2.58 µM | GI50 (NCI-H522 lung) 3.5 µM | GI50 (OVCAR-3 ovarian) 3.27 µM | GI50 (OVCAR-4 ovarian) 2.97 µM | GI50 (OVCAR-5 ovarian) 5.58 µM | GI50 (PC-3 prostate) 2.22 µM | GI50 (RPMI-8226 leukemia) > 100 µM | GI50 (RXF 393 renal) 1.91 µM | GI50 (SF-268 CNS) 4.3 µM | GI50 (SF-295 CNS) 1.7 µM | GI50 (SF-539 CNS) 3.07 µM | GI50 (SK-MEL-2 melanoma) 2.51 µM | GI50 (SK-MEL-28 melanoma) 2.66 µM | GI50 (SK-MEL-5 melanoma) 3.08 µM | GI50 (SK-OV-3 ovarian) 3 µM | GI50 (SN12C renal) 5.11 µM | GI50 (SNB-19 CNS) 2.22 µM | GI50 (SNB-75 CNS) 2.34 µM | GI50 (SR leukemia) > 100 µM | GI50 (SW-620 colon) 4.94 µM | GI50 (T-47D breast) 5.08 µM | GI50 (TK-10 renal) 4.09 µM | GI50 (U251 CNS) 2.43 µM | GI50 (UACC-257 melanoma) 5.89 µM | GI50 (UACC-62 melanoma) 2.07 µM | GI50 (UO-31 renal) 3.93 µM
13.3 µM: TGI (UACC-62 melanoma)
11.9 µM: TGI (NCI-H23 lung)
13.5 µM: TGI (MDA-MB-468 breast)
5.55 µM: TGI (SNB-19 CNS)

CSc1ccc(C(=O)Nc2ccc3nnn(/C(C#N)=C/c4ccccn4)c3c2)cc1
2.72 µM: TGI (MCF7 breast)
2.91 µM: TGI (MDA-MB-468 breast)
4.35 µM: TGI (NCI-H460 lung)
> 100 µM: TGI (A549 NSCLC) | TGI (CCRF-CEM leukemia) | TGI (HL-60(TB) leukemia) | TGI (K-562 leukemia) | TGI (MOLT-4 leukemia) | TGI (OVCAR-4 ovarian) | TGI (SK-OV-3 ovarian) | TGI (SR leukemia)
3.11 µM: TGI (ACHN renal) | TGI (SK-MEL-28 melanoma) | TGI (TK-10 renal)
45.3 µM: TGI (SF-268 CNS)
7.12 µM: TGI (HS 578T breast)
3.23 µM: TGI (MDA-MB-231 breast)
26.9 µM: TGI (NCI-H226 lung)
12.1 µM: TGI (SNB-19 CNS)
4.62 µM: TGI (HOP-92 NSCLC)
4.79 µM: TGI (SK-MEL-5 melanoma)
3.8 µM: TGI (IGROV1 ovarian)
3.5 µM: TGI (NCI-H23 lung)
12.6 µM: TGI (HOP-62 NSCLC)
4.97 µM: TGI (SN12C renal)
3.35 µM: TGI (UACC-62 melanoma)
4.89 µM: TGI (EKVX NSCLC)
4.65 µM: TGI (KM12 colon)
2.92 µM: TGI (LOX IMVI melanoma)
3.26 µM: TGI (HCC-2998 colon)
53.3 µM: TGI (A498 renal)
21.4 µM: TGI (SF-295 CNS)
3.19 µM: TGI (OVCAR-5 ovarian)
25.4 µM: TGI (SNB-75 CNS)
3.05 µM: TGI (SF-539 CNS)
3.53 µM: TGI (HCT-15 colon)
inactive: GI50 (A498 renal) 13.2 µM | GI50 (A549 NSCLC) 3.46 µM | GI50 (ACHN renal) 1.74 µM | GI50 (CAKI-1 renal) 1.33 µM | GI50 (CCRF-CEM leukemia) 2.1 µM | GI50 (EKVX NSCLC) 2.15 µM | GI50 (HCC-2998 colon) 1.79 µM | GI50 (HCT-15 colon) 1.66 µM | GI50 (HL-60(TB) leukemia) 2.67 µM | GI50 (HOP-62 NSCLC) 3.11 µM | GI50 (HOP-92 NSCLC) 1.79 µM | GI50 (HS 578T breast) 2.51 µM | GI50 (IGROV1 ovarian) 1.91 µM | GI50 (K-562 leukemia) 2.53 µM | GI50 (KM12 colon) 1.94 µM | GI50 (LOX IMVI melanoma) 1.52 µM | GI50 (MCF7 breast) 1.28 µM | GI50 (MDA-MB-231 breast) 1.76 µM | GI50 (MDA-MB-468 breast) 1.31 µM | GI50 (MOLT-4 leukemia) 3.57 µM | GI50 (NCI-H226 lung) 3.76 µM | GI50 (NCI-H23 lung) 1.78 µM | GI50 (NCI-H460 lung) 2.2 µM | GI50 (OVCAR-4 ovarian) 4.53 µM | GI50 (OVCAR-5 ovarian) 1.75 µM | GI50 (PC-3 prostate) 2.74 µM | GI50 (RXF 393 renal) 1.5 µM | GI50 (SF-268 CNS) 4.16 µM | GI50 (SF-295 CNS) 6.89 µM | GI50 (SF-539 CNS) 1.66 µM | GI50 (SK-MEL-28 melanoma) 1.68 µM | GI50 (SK-MEL-5 melanoma) 2.01 µM | GI50 (SK-OV-3 ovarian) 24.5 µM | GI50 (SN12C renal) 2.13 µM | GI50 (SNB-19 CNS) 3.14 µM | GI50 (SNB-75 CNS) 3.97 µM | GI50 (SR leukemia) 2.75 µM | GI50 (TK-10 renal) 1.66 µM | GI50 (UACC-62 melanoma) 1.68 µM | GI50 (UO-31 renal) 1.37 µM
2.84 µM: TGI (RXF 393 renal)
2.65 µM: TGI (CAKI-1 renal) | TGI (UO-31 renal)
7.14 µM: TGI (PC-3 prostate)
